Experimental data published in article PMC4201977 (Journal of immunology (Baltimore, Md. : 1950), 2014).
Ends that are not written are not given here.

Experiments:
monocyte-derived DCs = experiment: Proteolytic activities in live DCs upon TLR ligand maturation; type: cell-based, human
[1] = Cytosolic stability of optimal epitopes in iDC extracts; type: in vitro ADME; conditions: human, iDC cytosolic extract, pH 7.4
[2] = Cytosolic stability of optimal epitopes in iMP extracts; type: in vitro ADME; conditions: human, iMP cytosolic extract, pH 7.4
[3] = 24h post stimulation, maturing over immature cells, n=2 donors

Compound | change of aminopeptidases hydrolytic activities in maturing DCs (monocyte-derived DCs; 5h, 24h, 48h post stimulation) | change of chymotryptic activities in maturing DCs (monocyte-derived DCs; 5h, 24h, 48h post stimulation) | decrease of proteasomal caspase-like activity in maturing DCs (monocyte-derived DCs; [3]) [%] | decrease of proteasomal tryptic activity in maturing DCs (monocyte-derived DCs; [3]) [%] | half-life [1] [min] | half-life [2] [min]
CCOCc1nc2c([nH]1)c(N)nc1ccccc12 [CL097] | unchanged | not affected | 30 | 30 | – | –
CC[C@H](C)[C@H](NC(=O)[C@@H](NC(=O)[C@H](CCC(=O)O)NC(=O)[C@@H]1CCCN1C(=O)[C@H](CO)NC(=O)[C@H](Cc1ccccc1)NC(=O)[C@H](C)NC(=O)[C@@H](N)CCCCN)C(C)C)C(=O)N1CCC[C@H]1C(=O)N[C@@H](CCSC)C(=O)N[C@@H](Cc1ccccc1)C(=O)O [KF11] | – | – | – | – | 22.1 | 20.4
ISPRTLNAW [ISW9] | – | – | – | – | 7 | 9.4
